Test results taken from patent publication US20180110740A1, “METHODS AND MATERIALS FOR TREATING ENDOMETRIOSIS” (Mayo Foundation for Medical Education and Research, priority 2015, published 2018).

Key:
[1] = test system: endometriotic lesions; experiment: Endometriotic lesion model: autologous uterine segments implanted onto the peritoneum of Klf11-/- or wt mice; format: in vivo; settings: wt animals; 50 μg/g of body weight; evaluated three weeks after treatment; vs DMSO
Method: FIG. 4 is a schematic diagram showing the design of the mouse endometriosis model. Two 0.5 cm uterine fragments are everted, so that the endometrium faces the peritonel cavity. These are then sutured to the flank peritoneum on either side by 8/0 proline microfilament suture.
FIG. 5 contains photographs of Klf11^-/- and wt animals induced to produce endometriosis lesions and treated with DMSO (control), garcinol (0.2 μg/g of body weight, or suberoyl anilide hydroxamic acid (SAHA; 50 μg/g of body weight). SAHA is also known as N-hydroxy-N′-phenyl-octanediamide or vorinostat. Endometriotic progression was evaluated three weeks after treatment. The arrows point to and define lesion associated scarring.
In another experiment, endometriotic lesions were induced in Klf11^-/- or wildtype (wt) mice (n=10 for each group) by implanting autologous 5 mm uterine segments onto the peritoneum (FIGS. 3 and 4). […] In addition, COL1A1 polypeptide expression was increased in implants from Klf11^-/- animals (FIGS. 3D and 3H) as compared to those from wt animals (FIGS. 3C and 3G).

[2] = test system: endometriotic progression; experiment: Dioxin-endometriosis model in wild type mice; format: in vivo; settings: wild type mice gavaged with Dioxin 3 μg/kg, HATI 0.2 μg/gm/day or vehicle
Method: (§1) Ishikawa cells were treated with Dioxin (0.1-10 nM) and KLF11 or EV-control. Treatment effects were determined on CYP3A4, a well-characterized CYP450 gene that is also an endometrial estrogen metabolizing enzyme. Promoter and gene expression were determined by reporter assay, qPCR, and western blot. CYP3A4 activity was determined by a specific substrate assay. Promoter histone code was evaluated by ChIP in Ishikawa treated with Dioxin and Histone Acetyl Transferase Inhibitor (HATI) or controls. The Dioxin-endometriosis model was created per published protocols in wild type mice gavaged with Dioxin (3 μg/kg) or vehicle. Animals were additionally treated 0.2 μg/gm/day of HATI or vehicle control (N=10/grp). Disease progression was evaluated in 12 weeks by morphometry, IHC, and qPCR.

[3] = test system: CYP3A4; experiment: CYP3A4 promoter, expression and activity in Ishikawa cells (reporter assay, qPCR, western blot, specific substrate assay); format: cell-based; settings: Dioxin 0.1-10 nM
Method: as §1

SMILES	fibrosis [1]	lesional CYP3A4 expression ([2]; 12 weeks)	Score ([2]; 12 weeks, P<0.05)	endometriotic disease progression ([2]; evaluated in 12 weeks by morphometry, IHC, qPCR)	CYP3A4 activation [3]
O=C(CCCCCCC(=O)Nc1ccccc1)NO [SAHA, N-hydroxy-N′-phenyl-octanediamide]	induction of de novo fibrosis				
Clc1cc2c(cc1Cl)Oc1cc(Cl)c(Cl)cc1O2 [Dioxin, 2,3,7,8-tetrachlorodibenzodioxin]		lesional epithelial CYP3A4 activation	26.4	prolific endometriotic progression	dose-dependently activated
